Source: EP4741420A1, “PHARMACEUTICAL COMPOSITION FOR PREVENTING OR TREATING OBESITY COMPRISING GLP ANALOGUE AS ACTIVE INGREDIENT” (priority 2023, dated 2025)
Like-named read-outs stand apart in the source and are kept apart here. Numbered stars: 1 amine (or outer) side, 2 acyl side, 3 side chain; on linkers, the order of the positions; unused ones are H or OH. Side chains are listed from the residue outwards. Ends that are not written are not given here. Peptide text beside a SMILES is read from it. * marks the point of attachment. mPEG 3.4 kDa = 3.4 kDa maleimidated PEG on Cys; C18 diacid = O=C(O)CCCCCCCCCCCCCCCCC(=O)*; γGlu = O=C(O)[C@H](CCC(=O)[*:2])N[*:1]; Palmitoyl = CCCCCCCCCCCCCCCC(=O)*

T1: GLP-2 (Homo sapiens, UniProt O95838)
T1 sequence (O95838 1-553): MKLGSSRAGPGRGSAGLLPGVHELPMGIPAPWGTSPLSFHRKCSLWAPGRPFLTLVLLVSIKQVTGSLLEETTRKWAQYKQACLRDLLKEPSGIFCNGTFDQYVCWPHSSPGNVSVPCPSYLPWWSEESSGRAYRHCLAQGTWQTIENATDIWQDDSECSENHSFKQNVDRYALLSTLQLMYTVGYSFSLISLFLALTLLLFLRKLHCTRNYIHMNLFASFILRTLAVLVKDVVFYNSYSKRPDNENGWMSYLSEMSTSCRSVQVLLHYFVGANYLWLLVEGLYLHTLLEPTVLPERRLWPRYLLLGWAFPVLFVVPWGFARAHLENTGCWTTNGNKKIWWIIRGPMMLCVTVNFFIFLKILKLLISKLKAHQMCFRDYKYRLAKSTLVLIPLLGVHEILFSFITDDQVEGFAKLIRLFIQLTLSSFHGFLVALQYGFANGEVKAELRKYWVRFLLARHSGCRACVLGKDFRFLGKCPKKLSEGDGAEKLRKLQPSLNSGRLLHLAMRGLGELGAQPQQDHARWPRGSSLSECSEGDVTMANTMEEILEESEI

B1: HU020M1 (peptide)
peptide: HGEGTFTSDLSTYLDALAARDFINWLIQTKITDKK([γGlu-C18 diacid])
B2: HU020M6 (peptide)
peptide: HGEGTFTSDLSTYLDALAAC(mPEG 3.4 kDa)DFINWLIQTKITDKK([γGlu-Palmitoyl])

How the values were obtained:
GLP-2 = molecular target: T1, GLP-2; test: GLP-2 activity, cell-based cAMP assay (same method as Example 2)
[1] = Mouse PK after single subcutaneous administration, LC-MS/MS of plasma; type: in vivo, mice; details: for Tmax / half-life / AUC(0-t) / Cmax: mouse, in vivo, sc; for Cmax: read-out: Cmax
Protocol: Each of the experimental groups and the control was subcutaneously administered once to the dorsal area of a total of 12 mice using a 1 mL syringe equipped with a 26-gauge needle at a dose of 0.2 mg/5 mL/kg. After drug administration, approximately 0.04 to 0.05 mL of blood was collected per individual at the time scheduled for the orbital vein (4 mice were alternately sampled), and the blood collection times were 1, 2, 4, 8, 24 ,32 ,48, 56, 72, 96, and 120 hours. All plasma samples were analyzed using a self-developed LC-MS/MS assay. Pharmacokinetic analysis of blood drugs was performed using non-compartmental analysis, and analysis of pharmacokinetic parameters was performed using Phoenix WinNolin 64 (Version. 8.3.5 340).

[2] = molecular target: GLP-1R (on GLP-1R/CHO cells, DiscoverX 95-0062C2) (UniProt P43220 24-463); test: cell-based or functional assay
GLP-1R (on GLP-1R/CHO cells, DiscoverX 95-0062C2), sequence (P43220 24-463 limits assumed): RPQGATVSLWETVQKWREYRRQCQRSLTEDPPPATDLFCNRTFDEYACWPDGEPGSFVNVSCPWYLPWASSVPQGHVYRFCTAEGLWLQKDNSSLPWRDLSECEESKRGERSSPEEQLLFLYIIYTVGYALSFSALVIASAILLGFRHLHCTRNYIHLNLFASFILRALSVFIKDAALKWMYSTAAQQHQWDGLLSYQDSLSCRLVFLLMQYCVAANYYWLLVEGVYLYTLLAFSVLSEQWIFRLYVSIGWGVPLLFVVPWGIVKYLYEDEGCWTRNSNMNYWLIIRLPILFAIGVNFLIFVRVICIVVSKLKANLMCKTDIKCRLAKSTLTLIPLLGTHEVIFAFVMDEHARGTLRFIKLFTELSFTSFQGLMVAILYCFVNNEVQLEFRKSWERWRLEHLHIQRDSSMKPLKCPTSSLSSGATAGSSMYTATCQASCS

[3] = 0.2 mg/kg, C57BL/6N male mice, single subcutaneous dose 0.2 mg/5 mL/kg, plasma
[4] = 0.2 mg/kg, C57BL/6N male mice, single subcutaneous dose 0.2 mg/5 mL/kg, plasma, read-out: T1/2 (converted)
[5] = 0.2 mg/kg, C57BL/6N male mice, single subcutaneous dose 0.2 mg/5 mL/kg, plasma, read-out: Tmax

Molecule	AUC(0-t) [1, 3] [ng·h/mL]	Cmax [1, 3] [ng/mL]	half-life [1, 4] [h]	Tmax [1, 5] [h]	also measured
CC[C@H](C)[C@H](NC(=O)[C@H](Cc1ccccc1)NC(=O)[C@H](CC(=O)O)NC(=O)[C@H](CCCNC(=N)N)NC(=O)[C@H](C)NC(=O)[C@H](C)NC(=O)[C@H](CC(C)C)NC(=O)[C@H](CC(N)=O)NC(=O)[C@H](CC(=O)O)NC(=O)[C@H](CC(C)C)NC(=O)[C@@H](NC(=O)[C@@H](NC(=O)[C@H](CC(N)=O)NC(=O)[C@H](CCSC)NC(=O)[C@H](CCC(=O)O)NC(=O)[C@H](CC(=O)O)NC(=O)[C@H](CO)NC(=O)[C@H](Cc1ccccc1)NC(=O)[C@H](CO)NC(=O)CNC(=O)[C@H](CC(=O)O)NC(=O)[C@H](C)NC(=O)[C@@H](N)Cc1c[nH]cn1)[C@@H](C)O)[C@@H](C)CC)C(=O)N[C@@H](CC(N)=O)C(=O)N[C@@H](Cc1c[nH]c2ccccc12)C(=O)N[C@@H](CC(C)C)C(=O)N[C@H](C(=O)N[C@@H](CCC(N)=O)C(=O)N[C@H](C(=O)N[C@@H](CCCCN)C(=O)N[C@H](C(=O)N[C@H](C(=O)N[C@@H](CC(=O)O)C(=O)O)[C@@H](C)O)[C@@H](C)CC)[C@@H](C)O)[C@@H](C)CC [GLP-2 (Synthesized), GLP-2, reference compound]					GLP-2 activity Compared to GLP-2 (GLP-2; Example 5, relative to GLP-2): 100%
CC[C@H](C)[C@H](NC(=O)[C@H](Cc1ccccc1)NC(=O)[C@H](CC(=O)O)NC(=O)[C@H](CCCNC(=N)N)NC(=O)[C@H](C)NC(=O)[C@H](C)NC(=O)[C@H](CC(C)C)NC(=O)[C@H](C)NC(=O)[C@H](CC(=O)O)NC(=O)[C@H](CC(C)C)NC(=O)[C@H](Cc1ccc(O)cc1)NC(=O)[C@@H](NC(=O)[C@H](CO)NC(=O)[C@H](CC(C)C)NC(=O)[C@H](CC(=O)O)NC(=O)[C@H](CO)NC(=O)[C@@H](NC(=O)[C@H](Cc1ccccc1)NC(=O)[C@@H](NC(=O)CNC(=O)[C@H](CCC(=O)O)NC(=O)CNC(=O)[C@@H](N)Cc1c[nH]cn1)[C@@H](C)O)[C@@H](C)O)[C@@H](C)O)C(=O)N[C@@H](CC(N)=O)C(=O)N[C@@H](Cc1c[nH]c2ccccc12)C(=O)N[C@@H](CC(C)C)C(=O)N[C@H](C(=O)N[C@@H](CCC(N)=O)C(=O)N[C@H](C(=O)N[C@@H](CCCCN)C(=O)N[C@H](C(=O)N[C@H](C(=O)N[C@@H](CC(=O)O)C(=O)N[C@@H](CCCCN)C(=O)N[C@@H](CCCCNC(=O)CC[C@H](NC(=O)CCCCCCCCCCCCCCCCC(=O)O)C(=O)O)C(=O)O)[C@@H](C)O)[C@@H](C)CC)[C@@H](C)O)[C@@H](C)CC [HU020M1] (HELM PEPTIDE1{H.G.E.G.T.F.T.S.D.L.S.T.Y.L.D.A.L.A.A.R.D.F.I.N.W.L.I.Q.T.K.I.T.D.K.K}|PEPTIDE2{[O=C(O)CCCCCCCCCCCCCCCCC(=O)[*:2]].[gGlu]}$PEPTIDE1,PEPTIDE2,35:R3-2:R2$$$V2.0)					Tmax ([1]; male, C57BL/6N): 12 h; half-life ([1]; male, C57BL/6N): 13.8 h
CCCCCCCCCCCCCCCC(=O)N[C@@H](CCC(=O)NCCCC[C@H](NC(=O)[C@H](CCCCN)NC(=O)[C@H](CC(=O)O)NC(=O)[C@@H](NC(=O)[C@@H](NC(=O)[C@H](CCCCN)NC(=O)[C@@H](NC(=O)[C@H](CCC(N)=O)NC(=O)[C@@H](NC(=O)[C@H](CC(C)C)NC(=O)[C@H](Cc1c[nH]c2ccccc12)NC(=O)[C@H](CC(N)=O)NC(=O)[C@@H](NC(=O)[C@H](Cc1ccccc1)NC(=O)[C@H](CC(=O)O)NC(=O)[C@H](CCCNC(=N)N)NC(=O)[C@H](C)NC(=O)[C@H](C)NC(=O)[C@H](CC(C)C)NC(=O)[C@H](C)NC(=O)[C@H](CC(=O)O)NC(=O)[C@H](CC(C)C)NC(=O)[C@H](Cc1ccc(O)cc1)NC(=O)[C@@H](NC(=O)[C@H](CO)NC(=O)[C@H](CC(C)C)NC(=O)[C@H](CC(=O)O)NC(=O)[C@H](CO)NC(=O)[C@@H](NC(=O)[C@H](Cc1ccccc1)NC(=O)[C@@H](NC(=O)CNC(=O)[C@H](CCC(=O)O)NC(=O)C(C)(C)NC(=O)[C@@H](N)Cc1c[nH]cn1)[C@@H](C)O)[C@@H](C)O)[C@@H](C)O)[C@@H](C)CC)[C@@H](C)CC)[C@@H](C)O)[C@@H](C)CC)[C@@H](C)O)C(=O)O)C(=O)O [HU020M3] (HELM PEPTIDE1{H.[Aib].E.G.T.F.T.S.D.L.S.T.Y.L.D.A.L.A.A.R.D.F.I.N.W.L.I.Q.T.K.I.T.D.K.K}|PEPTIDE2{[CCCCCCCCCCCCCCCC(=O)[*:2]].[gGlu]}$PEPTIDE1,PEPTIDE2,35:R3-2:R2$$$V2.0)	5070	315	7	12	
CC[C@H](C)[C@H](NC(=O)[C@H](Cc1ccccc1)NC(=O)[C@H](CC(=O)O)NC(=O)[C@H](CCCNC(=N)N)NC(=O)[C@H](C)NC(=O)[C@H](C)NC(=O)[C@H](CC(C)C)NC(=O)[C@H](C)NC(=O)[C@H](CC(=O)O)NC(=O)[C@H](CC(C)C)NC(=O)[C@H](Cc1ccc(O)cc1)NC(=O)[C@@H](NC(=O)[C@H](CO)NC(=O)[C@H](CC(C)C)NC(=O)[C@H](CC(=O)O)NC(=O)[C@H](CO)NC(=O)[C@@H](NC(=O)[C@H](Cc1ccccc1)NC(=O)[C@@H](NC(=O)CNC(=O)[C@H](CCC(=O)O)NC(=O)C(C)(C)NC(=O)[C@@H](N)Cc1c[nH]cn1)[C@@H](C)O)[C@@H](C)O)[C@@H](C)O)C(=O)N[C@@H](CC(N)=O)C(=O)N[C@@H](Cc1c[nH]c2ccccc12)C(=O)N[C@@H](CC(C)C)C(=O)N[C@H](C(=O)N[C@@H](CCC(N)=O)C(=O)N[C@H](C(=O)N[C@@H](CCCCN)C(=O)N[C@H](C(=O)N[C@H](C(=O)N[C@@H](CC(=O)O)C(=O)N[C@@H](CCCCN)C(=O)N[C@@H](CCCCNC(=O)CC[C@H](NC(=O)CCCCCCCCCCCCCCCCC(=O)O)C(=O)O)C(=O)O)[C@@H](C)O)[C@@H](C)CC)[C@@H](C)O)[C@@H](C)CC [HU020M4] (HELM PEPTIDE1{H.[Aib].E.G.T.F.T.S.D.L.S.T.Y.L.D.A.L.A.A.R.D.F.I.N.W.L.I.Q.T.K.I.T.D.K.K}|PEPTIDE2{[O=C(O)CCCCCCCCCCCCCCCCC(=O)[*:2]].[gGlu]}$PEPTIDE1,PEPTIDE2,35:R3-2:R2$$$V2.0)	23800	810	10.7	8	half-life longer than that of semaglutide ([1]; mouse PK, relative to semaglutide): 1.5 fold
CC[C@H](C)[C@H](NC(=O)[C@H](Cc1ccccc1)NC(=O)[C@H](CC(=O)O)NC(=O)[C@H](CCCNC(=N)N)NC(=O)[C@H](C)NC(=O)[C@H](C)NC(=O)[C@H](CC(C)C)NC(=O)[C@H](C)NC(=O)[C@H](CC(=O)O)NC(=O)[C@H](CC(C)C)NC(=O)[C@H](Cc1ccc(O)cc1)NC(=O)[C@@H](NC(=O)[C@H](CO)NC(=O)[C@H](CC(C)C)NC(=O)[C@H](CC(=O)O)NC(=O)[C@H](CO)NC(=O)[C@@H](NC(=O)[C@H](Cc1ccccc1)NC(=O)[C@@H](NC(=O)CNC(=O)[C@H](CCC(=O)O)NC(=O)C(C)(C)NC(=O)[C@@H](N)Cc1c[nH]cn1)[C@@H](C)O)[C@@H](C)O)[C@@H](C)O)C(=O)N[C@@H](CC(N)=O)C(=O)N[C@@H](Cc1c[nH]c2ccccc12)C(=O)N[C@@H](CC(C)C)C(=O)N[C@H](C(=O)N[C@@H](CCC(N)=O)C(=O)N[C@H](C(=O)N[C@@H](CCCCN)C(=O)N[C@H](C(=O)N[C@H](C(=O)N[C@@H](CC(=O)O)C(=O)N[C@@H](CCCCN)C(=O)N[C@@H](CCCCNC(=O)CC[C@H](NC(=O)CCCCCCCCCCCCCCCCCCC(=O)O)C(=O)O)C(=O)O)[C@@H](C)O)[C@@H](C)CC)[C@@H](C)O)[C@@H](C)CC [HU020M5] (HELM PEPTIDE1{H.[Aib].E.G.T.F.T.S.D.L.S.T.Y.L.D.A.L.A.A.R.D.F.I.N.W.L.I.Q.T.K.I.T.D.K.K}|PEPTIDE2{[O=C(O)CCCCCCCCCCCCCCCCCCC(=O)[*:2]].[gGlu]}$PEPTIDE1,PEPTIDE2,35:R3-2:R2$$$V2.0)	20500	661	15.2	8	
HGEGTFTSDLSTYLDALAARDFINWLIQTKITD [HU020]					EC50 (GLP-2; Example 5): 650 nM
B1					GLP-1 activity (EC50, pM) [2]: 113 pM; GLP-1 activity, Compared to GLP-1 (Exendin-4) [2]: 6.3%
B2					GLP-1 activity (EC50, pM) [2]: 45.7 pM; GLP-1 activity, Compared to GLP-1 (Exendin-4) [2]: 15.5%
